Results: article doi:10.1101/2020.06.11.145995v1 (biorxiv, 2020)
Where two headings read alike, the source gives them in different places. One block for each molecule: values may come before it.

Key:
Assay in all cases: biochemical
MST1 = MST1 (Homo sapiens, UniProt Q13043)
LKB1 = LKB1 (Homo sapiens, UniProt Q15831)
EGFR(G719S) = EGFR(G719S) (Homo sapiens, UniProt P00533, G719S)
MUSK = MUSK (Homo sapiens, UniProt O15146)
MAP3K1 = MAP3K1 (Homo sapiens, UniProt Q13233)
HIPK2 = HIPK2 (Homo sapiens, UniProt Q9H2X6)
CDKL5 = CDKL5 (Homo sapiens, UniProt O76039)
ADCK4 = ADCK4 (Homo sapiens, UniProt Q96D53)
FAK = FAK (Homo sapiens, UniProt Q05397)
MET = MET (Homo sapiens, UniProt P08581)
FLT3(N841I) = FLT3(N841I) (Homo sapiens, UniProt P36888, N841I)
DLK = DLK (Homo sapiens, UniProt Q12852)
DCAMKL1 = DCAMKL1 (Homo sapiens, UniProt O15075)
DDR2 = DDR2 (Homo sapiens, UniProt Q16832)
MST3 = MST3 (Homo sapiens, UniProt Q9Y6E0)
FRK = FRK (Homo sapiens, UniProt P42685)
LIMK2 = LIMK2 (Homo sapiens, UniProt P53671)
MAP4K2 = MAP4K2 (Homo sapiens, UniProt Q12851)
INSRR = INSRR (Homo sapiens, UniProt P14616)
IRAK1 = IRAK1 (Homo sapiens, UniProt P51617)
CAMK2G = CAMK2G (Homo sapiens, UniProt Q13555)
CSNK2A1 = CSNK2A1 (Homo sapiens, UniProt P68400)
MET(M1250T) = MET(M1250T) (Homo sapiens, UniProt P08581, M1250T)
ACVRL1 = ACVRL1 (Homo sapiens, UniProt P37023)
AURKB = AURKB (Homo sapiens, UniProt Q96GD4)
HPK1 = HPK1 (Homo sapiens, UniProt Q92918)
LOK = LOK (Homo sapiens, UniProt O94804)
MARK3 = MARK3 (Homo sapiens, UniProt P27448)
CAMKK2 = CAMKK2 (Homo sapiens, UniProt Q96RR4)
ACVR1 = ACVR1 (Homo sapiens, UniProt Q04771)
[1] = read-out: CPT-1-70-1 (1uM) % control
[2] = read-out: HYJ-2-002-1 (1uM) % control

Chain of MST3 (Q9Y6E0 whole entry): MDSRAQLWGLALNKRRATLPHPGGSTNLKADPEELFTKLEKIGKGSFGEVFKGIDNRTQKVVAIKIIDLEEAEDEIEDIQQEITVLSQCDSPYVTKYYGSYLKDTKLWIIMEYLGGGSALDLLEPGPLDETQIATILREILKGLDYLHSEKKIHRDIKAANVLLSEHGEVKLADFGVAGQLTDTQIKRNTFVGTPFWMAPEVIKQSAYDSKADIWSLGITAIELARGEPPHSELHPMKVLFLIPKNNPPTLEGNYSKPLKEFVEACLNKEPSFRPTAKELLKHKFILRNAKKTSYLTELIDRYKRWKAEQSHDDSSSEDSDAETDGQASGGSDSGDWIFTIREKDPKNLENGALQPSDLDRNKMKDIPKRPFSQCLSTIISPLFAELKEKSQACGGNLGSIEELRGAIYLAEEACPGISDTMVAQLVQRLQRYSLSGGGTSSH
Chain of DCAMKL1 (O15075 whole entry): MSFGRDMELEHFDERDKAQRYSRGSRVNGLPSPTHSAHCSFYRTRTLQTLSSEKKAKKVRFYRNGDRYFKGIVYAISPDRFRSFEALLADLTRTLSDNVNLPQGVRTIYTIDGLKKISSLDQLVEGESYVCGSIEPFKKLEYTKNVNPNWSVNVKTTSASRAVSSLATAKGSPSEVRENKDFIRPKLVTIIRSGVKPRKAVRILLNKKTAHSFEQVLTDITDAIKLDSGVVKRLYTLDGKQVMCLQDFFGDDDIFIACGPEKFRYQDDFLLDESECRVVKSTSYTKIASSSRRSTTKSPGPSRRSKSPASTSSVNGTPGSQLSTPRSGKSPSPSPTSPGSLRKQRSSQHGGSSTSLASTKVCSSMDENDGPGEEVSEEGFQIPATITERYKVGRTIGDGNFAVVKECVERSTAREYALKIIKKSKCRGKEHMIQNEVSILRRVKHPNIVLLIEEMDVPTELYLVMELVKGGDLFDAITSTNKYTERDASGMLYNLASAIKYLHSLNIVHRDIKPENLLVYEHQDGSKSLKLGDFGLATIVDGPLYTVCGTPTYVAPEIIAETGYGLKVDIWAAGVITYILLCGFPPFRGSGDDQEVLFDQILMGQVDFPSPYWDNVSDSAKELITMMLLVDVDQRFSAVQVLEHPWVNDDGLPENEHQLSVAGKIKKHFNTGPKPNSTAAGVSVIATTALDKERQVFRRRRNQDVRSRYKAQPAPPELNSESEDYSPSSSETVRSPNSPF
Chain of MST1 (Q13043 whole entry): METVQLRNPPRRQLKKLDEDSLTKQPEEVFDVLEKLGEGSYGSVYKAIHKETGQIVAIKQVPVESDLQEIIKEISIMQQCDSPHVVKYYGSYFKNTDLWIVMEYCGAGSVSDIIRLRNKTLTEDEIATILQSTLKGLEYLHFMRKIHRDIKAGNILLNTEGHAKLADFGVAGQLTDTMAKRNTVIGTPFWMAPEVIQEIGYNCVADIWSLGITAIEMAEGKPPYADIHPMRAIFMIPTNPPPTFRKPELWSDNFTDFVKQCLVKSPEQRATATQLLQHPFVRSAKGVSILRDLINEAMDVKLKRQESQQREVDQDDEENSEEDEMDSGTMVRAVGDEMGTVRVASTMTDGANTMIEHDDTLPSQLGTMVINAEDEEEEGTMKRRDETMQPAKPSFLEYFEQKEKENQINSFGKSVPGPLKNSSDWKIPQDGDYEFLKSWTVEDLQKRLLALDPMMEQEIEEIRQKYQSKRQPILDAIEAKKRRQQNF
Chain of INSRR (P14616 whole entry): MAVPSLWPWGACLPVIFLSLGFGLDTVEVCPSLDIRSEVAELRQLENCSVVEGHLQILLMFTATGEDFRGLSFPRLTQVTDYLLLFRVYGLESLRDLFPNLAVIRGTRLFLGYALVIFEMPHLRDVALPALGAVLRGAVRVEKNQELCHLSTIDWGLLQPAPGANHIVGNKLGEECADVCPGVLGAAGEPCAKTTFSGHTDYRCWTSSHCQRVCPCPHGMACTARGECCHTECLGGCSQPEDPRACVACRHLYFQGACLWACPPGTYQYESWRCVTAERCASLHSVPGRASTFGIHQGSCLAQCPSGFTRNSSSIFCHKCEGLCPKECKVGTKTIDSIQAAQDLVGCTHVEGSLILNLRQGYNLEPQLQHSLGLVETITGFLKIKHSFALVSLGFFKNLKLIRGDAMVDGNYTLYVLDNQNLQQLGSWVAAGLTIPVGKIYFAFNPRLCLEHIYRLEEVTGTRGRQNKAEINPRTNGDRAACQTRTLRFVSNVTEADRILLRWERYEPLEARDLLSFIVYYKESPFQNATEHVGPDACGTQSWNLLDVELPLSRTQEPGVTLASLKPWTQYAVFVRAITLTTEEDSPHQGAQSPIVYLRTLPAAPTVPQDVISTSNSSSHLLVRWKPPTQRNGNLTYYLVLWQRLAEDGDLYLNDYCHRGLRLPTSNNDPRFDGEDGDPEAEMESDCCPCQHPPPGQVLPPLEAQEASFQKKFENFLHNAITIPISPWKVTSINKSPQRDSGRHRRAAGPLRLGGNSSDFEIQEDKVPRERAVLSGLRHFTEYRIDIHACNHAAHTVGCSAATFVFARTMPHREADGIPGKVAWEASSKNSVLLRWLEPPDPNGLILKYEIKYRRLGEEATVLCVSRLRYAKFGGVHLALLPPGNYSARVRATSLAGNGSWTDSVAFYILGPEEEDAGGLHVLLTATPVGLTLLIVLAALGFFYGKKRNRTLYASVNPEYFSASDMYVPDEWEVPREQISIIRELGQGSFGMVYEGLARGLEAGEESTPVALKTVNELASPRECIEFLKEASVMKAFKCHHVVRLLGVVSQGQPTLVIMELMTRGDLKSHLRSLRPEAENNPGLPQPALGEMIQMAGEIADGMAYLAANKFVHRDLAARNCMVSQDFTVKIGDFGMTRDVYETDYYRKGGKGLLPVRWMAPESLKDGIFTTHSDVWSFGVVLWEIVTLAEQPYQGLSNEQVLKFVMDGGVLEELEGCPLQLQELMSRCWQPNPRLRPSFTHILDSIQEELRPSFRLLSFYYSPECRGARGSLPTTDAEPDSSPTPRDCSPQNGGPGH
Chain of ADCK4 (Q96D53 whole entry): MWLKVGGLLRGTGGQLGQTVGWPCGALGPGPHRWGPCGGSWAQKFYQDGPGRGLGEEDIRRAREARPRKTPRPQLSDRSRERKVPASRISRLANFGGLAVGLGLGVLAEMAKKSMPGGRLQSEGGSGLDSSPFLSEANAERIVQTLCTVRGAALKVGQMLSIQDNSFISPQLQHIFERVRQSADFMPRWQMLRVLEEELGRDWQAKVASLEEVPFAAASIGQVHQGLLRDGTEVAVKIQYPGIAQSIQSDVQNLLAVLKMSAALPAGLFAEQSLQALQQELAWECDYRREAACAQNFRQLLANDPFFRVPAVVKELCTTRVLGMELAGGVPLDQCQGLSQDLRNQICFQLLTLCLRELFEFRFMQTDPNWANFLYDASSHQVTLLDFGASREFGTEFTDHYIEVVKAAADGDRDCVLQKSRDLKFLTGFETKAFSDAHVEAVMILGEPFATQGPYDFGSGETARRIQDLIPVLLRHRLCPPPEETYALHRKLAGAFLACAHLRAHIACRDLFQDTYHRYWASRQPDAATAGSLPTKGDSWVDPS
Chain of IRAK1 (P51617 whole entry): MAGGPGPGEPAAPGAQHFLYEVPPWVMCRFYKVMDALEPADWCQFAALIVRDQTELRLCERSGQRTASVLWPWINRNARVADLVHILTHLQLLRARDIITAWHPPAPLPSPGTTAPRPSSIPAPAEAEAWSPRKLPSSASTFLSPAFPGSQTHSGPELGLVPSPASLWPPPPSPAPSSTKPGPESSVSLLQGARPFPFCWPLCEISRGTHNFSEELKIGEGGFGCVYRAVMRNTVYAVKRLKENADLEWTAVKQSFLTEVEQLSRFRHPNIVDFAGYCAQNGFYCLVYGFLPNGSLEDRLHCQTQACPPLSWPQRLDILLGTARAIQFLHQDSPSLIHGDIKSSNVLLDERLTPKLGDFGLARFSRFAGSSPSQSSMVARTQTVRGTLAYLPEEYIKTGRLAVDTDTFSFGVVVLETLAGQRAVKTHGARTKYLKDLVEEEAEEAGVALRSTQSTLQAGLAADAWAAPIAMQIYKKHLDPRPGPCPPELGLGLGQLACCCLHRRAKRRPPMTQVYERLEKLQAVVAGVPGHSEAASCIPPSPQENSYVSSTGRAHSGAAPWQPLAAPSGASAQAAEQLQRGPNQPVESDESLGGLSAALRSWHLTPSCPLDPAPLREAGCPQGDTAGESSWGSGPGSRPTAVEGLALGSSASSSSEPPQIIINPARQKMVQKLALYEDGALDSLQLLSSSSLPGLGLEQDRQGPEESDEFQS
Chain of CAMKK2 (Q96RR4 whole entry): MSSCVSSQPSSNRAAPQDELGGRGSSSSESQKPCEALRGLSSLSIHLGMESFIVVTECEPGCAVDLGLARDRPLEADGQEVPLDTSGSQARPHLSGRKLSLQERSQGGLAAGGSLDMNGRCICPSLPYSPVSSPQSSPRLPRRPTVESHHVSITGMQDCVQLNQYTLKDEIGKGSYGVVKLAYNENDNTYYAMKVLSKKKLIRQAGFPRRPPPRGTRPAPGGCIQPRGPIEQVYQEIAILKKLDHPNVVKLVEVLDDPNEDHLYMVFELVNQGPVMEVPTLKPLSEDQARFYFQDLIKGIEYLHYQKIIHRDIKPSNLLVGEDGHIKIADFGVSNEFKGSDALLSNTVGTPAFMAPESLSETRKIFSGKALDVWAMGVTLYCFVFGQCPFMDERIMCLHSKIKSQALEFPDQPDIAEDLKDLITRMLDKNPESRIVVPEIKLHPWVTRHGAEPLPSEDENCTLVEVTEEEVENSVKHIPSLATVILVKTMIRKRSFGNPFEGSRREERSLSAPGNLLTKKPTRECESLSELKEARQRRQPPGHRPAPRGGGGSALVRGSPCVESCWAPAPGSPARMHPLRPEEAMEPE

SMILES: CN1CCN(c2ccc(Nc3nc(Oc4ccc(NC(=O)CCl)cc4)c4cc[nH]c4n3)cc2)CC1 [CPT1-70-1]
remaining activity at 1 µM (MST1; [1]): 100% | remaining activity at 1 µM (LKB1; [1]): 76% | remaining activity at 1 µM (EGFR(G719S); [1]): 34% | remaining activity at 1 µM (MUSK; [1]): 8.8% | remaining activity at 1 µM (MAP3K1; [1]): 100% | remaining activity at 1 µM (HIPK2; [1]): 90% | remaining activity at 1 µM (CDKL5; [1]): 100% | remaining activity at 1 µM (ADCK4; [1]): 91% | remaining activity at 1 µM (FAK; [1]): 85% | remaining activity at 1 µM (MET; [1]): 28% | remaining activity at 1 µM (FLT3(N841I); [1]): 1.2% | remaining activity at 1 µM (DLK; [1]): 78% | remaining activity at 1 µM (DCAMKL1; [1]): 100% | remaining activity at 1 µM (DDR2; [1]): 100% | remaining activity at 1 µM (MST3; [1]): 93% | remaining activity at 1 µM (FRK; [1]): 100% | remaining activity at 1 µM (LIMK2; [1]): 100% | remaining activity at 1 µM (MAP4K2; [1]): 25% | remaining activity at 1 µM (INSRR; [1]): 33% | remaining activity at 1 µM (IRAK1; [1]): 53% | remaining activity at 1 µM (CAMK2G; [1]): 100% | remaining activity at 1 µM (CSNK2A1; [1]): 35% | remaining activity at 1 µM (MET(M1250T); [1]): 39% | remaining activity at 1 µM (ACVRL1; [1]): 100% | remaining activity at 1 µM (AURKB; [1]): 61% | remaining activity at 1 µM (HPK1; [1]): 13% | remaining activity at 1 µM (LOK; [1]): 100% | remaining activity at 1 µM (MARK3; [1]): 9.2% | remaining activity at 1 µM (CAMKK2; [1]): 68% | remaining activity at 1 µM (ACVR1; [1]): 100%

remaining activity at 1 µM (MST1; [2]): 89% | remaining activity at 1 µM (LKB1; [2]): 100% | remaining activity at 1 µM (EGFR(G719S); [2]): 1.8% | remaining activity at 1 µM (MUSK; [2]): 1.4% | remaining activity at 1 µM (MAP3K1; [2]): 83% | remaining activity at 1 µM (HIPK2; [2]): 84% | remaining activity at 1 µM (CDKL5; [2]): 100% | remaining activity at 1 µM (ADCK4; [2]): 100% | remaining activity at 1 µM (FAK; [2]): 91% | remaining activity at 1 µM (MET; [2]): 59% | remaining activity at 1 µM (FLT3(N841I); [2]): 1.5% | remaining activity at 1 µM (DLK; [2]): 86% | remaining activity at 1 µM (DCAMKL1; [2]): 100% | remaining activity at 1 µM (DDR2; [2]): 0.05% | remaining activity at 1 µM (MST3; [2]): 76% | remaining activity at 1 µM (FRK; [2]): 1.4% | remaining activity at 1 µM (LIMK2; [2]): 32% | remaining activity at 1 µM (MAP4K2; [2]): 4.6% | remaining activity at 1 µM (INSRR; [2]): 100% | remaining activity at 1 µM (IRAK1; [2]): 62% | remaining activity at 1 µM (CAMK2G; [2]): 100% | remaining activity at 1 µM (CSNK2A1; [2]): 94% | remaining activity at 1 µM (MET(M1250T); [2]): 61% | remaining activity at 1 µM (ACVRL1; [2]): 100% | remaining activity at 1 µM (AURKB; [2]): 43% | remaining activity at 1 µM (HPK1; [2]): 3.4% | remaining activity at 1 µM (LOK; [2]): 0.75% | remaining activity at 1 µM (MARK3; [2]): 100% | remaining activity at 1 µM (CAMKK2; [2]): 100% | remaining activity at 1 µM (ACVR1; [2]): 100%
SMILES: CCN1CCN(Cc2ccc(NC(=O)c3ccc(C)c(CCc4cnc5[nH]ccc5c4OC)c3)cc2C(F)(F)F)CC1 [HYJ-2-002-1]
